From US20090221642A1, “MUSCARINIC RECEPTOR AGONISTS, COMPOSITIONS, METHODS OF TREATMENT THEREOF, AND PROCESSES FOR PREPARATION THEREOF-176” (AstraZeneca AB, priority 2008, published 2009) come the findings set out here.

Where two headings read alike, the source gives them in different places.

The target of test [1] is T1, hM1 (human Muscarinic receptor subtype 1) (Homo sapiens, UniProt P11229).
T1 construct: expressed in transfected cells; host or cells: CHO cells (Chinese hamster ovary cells, ATCC)
T1 sequence (P11229 1-460): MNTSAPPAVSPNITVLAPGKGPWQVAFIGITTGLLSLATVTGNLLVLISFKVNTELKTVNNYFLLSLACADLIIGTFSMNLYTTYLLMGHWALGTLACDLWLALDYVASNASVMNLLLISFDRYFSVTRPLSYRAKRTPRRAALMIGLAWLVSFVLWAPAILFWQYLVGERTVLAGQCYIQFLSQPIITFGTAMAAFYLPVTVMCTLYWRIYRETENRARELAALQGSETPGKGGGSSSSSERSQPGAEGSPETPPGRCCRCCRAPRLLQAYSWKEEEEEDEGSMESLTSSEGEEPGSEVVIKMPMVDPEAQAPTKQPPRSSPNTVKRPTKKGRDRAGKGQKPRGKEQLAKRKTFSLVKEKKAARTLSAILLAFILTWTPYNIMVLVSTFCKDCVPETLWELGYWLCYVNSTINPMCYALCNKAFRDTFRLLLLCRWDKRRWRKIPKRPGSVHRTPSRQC
As to the kind of experiment: Human M1 calcium mobilization FLIPR assay. Type of test: cell-based. The note with it: hM1 expressed in CHO cells, intracellular Ca2+ release. The method, boiled down:
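CHO cells expressing the receptor, dye-loaded at 37°C for 60 min, read on FLIPR at 510-570 nm. Agonism taken from compound-induced Ca2+ rise (max RFU for M1); M3/M5 inhibition measured against 2 nM acetylcholine using max minus min RFU. 10-point threefold dilutions, sigmoidal fits.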

In test [2] the target is T2, cloned human M2 receptor (human Muscarinic receptor subtype 2) (Homo sapiens, UniProt P08172).
T2 construct: purchased Perkin-Elmer RBHM2M; host or cells: Chinese hamster ovary cells (CHO) membranes
T2 sequence (P08172 1-466): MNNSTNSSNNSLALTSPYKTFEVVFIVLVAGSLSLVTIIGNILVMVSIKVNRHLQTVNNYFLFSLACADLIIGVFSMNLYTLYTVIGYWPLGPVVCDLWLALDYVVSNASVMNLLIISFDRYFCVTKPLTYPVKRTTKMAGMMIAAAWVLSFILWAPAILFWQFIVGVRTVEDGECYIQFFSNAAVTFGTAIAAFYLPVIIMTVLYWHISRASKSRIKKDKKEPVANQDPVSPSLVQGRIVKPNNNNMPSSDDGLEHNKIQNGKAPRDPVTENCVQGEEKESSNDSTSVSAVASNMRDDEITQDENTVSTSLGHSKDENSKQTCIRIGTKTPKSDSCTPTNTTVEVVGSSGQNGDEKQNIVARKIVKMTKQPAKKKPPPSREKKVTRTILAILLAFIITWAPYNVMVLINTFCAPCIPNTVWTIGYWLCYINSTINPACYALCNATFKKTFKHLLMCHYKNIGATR
As to the kind of experiment: hM2 receptor GTPγS binding. The class given is biochemical. The following applies: CHO cell membranes expressing hM2, [35S]GTPγS binding. On the procedure:
hM2 Receptor GTPγS Binding
Membranes produced from Chinese hamster ovary cells (CHO) expressing the cloned human M2 receptor (human Muscarinic receptor subtype 2, gene bank access NM_000739), are obtained from Perkin-Elmer (RBHM2M). The membranes are thawed at 37° C., passed 3 times through a 23-gauge blunt-end needle, diluted in the GTPγS binding buffer (50 mM Hepes, 20 mM NaOH, 100 mM NaCl, 1 mM EDTA, 5 mM MgCl2, pH 7.4, 100 μM DTT). The EC50, IC50 and Emax of the compounds of the invention are evaluated from 10-point dose-response curves (three fold concentration range) done in 60 μl in 384-well non-specific binding surface plate (Corning). Ten microliters from the dose-response curves plate (5× concentration) are transferred to another 384 well plate containing 25 μl of the following: 5 μg of hM2 membranes, 500 μg of Flashblue beads (Perkin-Elmer) and GDP 25 μM. An additional 15 μl containing 3.3× (60,000 dpm) of GTPγ^35S (0.4 nM final) are added to the wells resulting in a total well volume of 50 μl. Basal and maximal stimulated [^35S]GTPγS binding are determined in absence and presence of 30 μM final of acetylcholine agonist. The membranes/beads mix are pre-incubated for 15 minutes at room temperature with 25 μM GDP prior to distribution in plates (12.5 μM final). The reversal of acetylcholine-induced stimulation (2 μM final) of [^35S]GTPγS binding is used to assay the antagonist properties (IC50) of the compounds. The plates are incubated for 60 minutes at room temperature then centrifuged at 400 rpm for 5 minutes. The radioactivity (cpm) is counted in a Trilux (Perkin-Elmer).
Values of EC50, IC50 and Emax are obtained using sigmoidal fits of a non-linear curve-fitting program (XLfit version 4.2.2 Excel add-in version 4.2.2 build 18 math 1Q version 2.1.2 build 18) of percent stimulated [^35S]GTPγS binding vs. log(molar ligand). All pEC50 and plC50 values are reported as arithmetic means ±standard error of mean of ‘n’ independent experiments.

For the compound `CCOC(=O)N1CCC(C)(N2CCC(N3C(=O)Cc4ccc(F)cc43)CC2)C1` (single isomer, unassigned) [Example 74, ethyl 3-(4-(6-fluoro-2-oxoindolin-1-yl)piperidin-1-yl)-3-methylpyrrolidine-1-carboxylate], the concentration for a half-maximal effect (EC50) in test [1] (read-out: hM1 EC50) turned out to be 10 nM; in test [2] (read-out: hM2 EC50) it was 1340 nM.
In the case of `COC(=O)N1CCC(C)(N2CCC(n3c(=O)[nH]c4ccccc43)CC2)C1` (racemic) [Example 2, methyl 3-methyl-3-(4-(2-oxo-2,3-dihydro-1H-benzo[d]imidazol-1-yl)piperidin-1-yl)pyrrolidine-1-carboxylate], the EC50 was determined as 13 nM in test [1] (read-out: hM1 EC50) and 865 nM in test [2] (read-out: hM2 EC50).
As for `CCOC(=O)N1CCC(C)(N2CCC(n3c(=O)[nH]c4cc(F)c(F)cc43)CC2)C1` (single isomer, unassigned) [Example 57, ethyl 3-(4-(5,6-difluoro-2-oxo-2,3-dihydro-1H-benzo[d]imidazol-1-yl)piperidin-1-yl)-3-methylpyrrolidine-1-carboxylate], the EC50 in test [1] (read-out: hM1 EC50) was determined as 2.6 nM; in test [2] (read-out: hM2 EC50), 428 nM.
Turning to `CC#CCOC(=O)N1CCC(C)(N2CCC(n3c(=O)[nH]c4cc(F)ccc43)CC2)C1` (single isomer, unassigned) [Example 22, but-2-ynyl 3-(4-(5-fluoro-2-oxo-2,3-dihydro-1H-benzo[d]imidazol-1-yl)piperidin-1-yl)-3-methylpyrrolidine-1-carboxylate], the EC50 in test [1] (read-out: hM1 EC50) was found to be 2.8 nM; in test [2] (read-out: hM2 EC50), 126 nM.
Regarding `CCOC(=O)N1CCC(C)(N2CCC(n3c(=O)[nH]c4cc(F)ccc43)CC2)C1` (single isomer, unassigned) [Example 6, ethyl 3-(4-(5-fluoro-2-oxo-2,3-dihydro-1H-benzo[d]imidazol-1-yl)piperidin-1-yl)-3-methylpyrrolidine-1-carboxylate], the figures for the EC50 in test [1] (read-out: hM1 EC50) and in test [2] (read-out: hM2 EC50) were under 1.4 nM and 588 nM, respectively.
Regarding `C#CCOC(=O)N1CCC(C)(N2CCC(n3c(=O)[nH]c4cc(C)ccc43)CC2)C1` (single isomer, unassigned) [Example 44, prop-2-ynyl 3-methyl-3-(4-(5-methyl-2-oxo-2,3-dihydro-1H-benzo[d]imidazol-1-yl)piperidin-1-yl)pyrrolidine-1-carboxylate], the EC50 in test [1] (read-out: hM1 EC50) was under 2.3 nM; in test [2] (read-out: hM2 EC50), 26 nM.
The corresponding values for `CCOC(=O)N1CCC(C)(N2CCC(n3c(=O)[nH]c4ccccc43)CC2)C1` (stereo not drawn) [Example 1, ethyl 3-methyl-3-(4-(2-oxo-2,3-dihydro-1H-benzo[d]imidazol-1-yl)piperidin-1-yl)pyrrolidine-1-carboxylate] are 4.2 nM and 498 nM.
The corresponding values for `CCOC(=O)N1CCC(C)(N2CCC(n3c(=O)[nH]c4cc(F)ccc43)CC2)C1` (single isomer, unassigned) [Example 7, ethyl 3-(4-(5-fluoro-2-oxo-2,3-dihydro-1H-benzo[d]imidazol-1-yl)piperidin-1-yl)-3-methylpyrrolidine-1-carboxylate] are under 6.6 nM and 4500 nM.
The corresponding values for `CC1(N2CCC(n3c(=O)[nH]c4ccccc43)CC2)CCN(C(=O)OCCF)C1` (single isomer, unassigned) [Example 31, 2-fluoroethyl 3-methyl-3-(4-(2-oxo-2,3-dihydro-1H-benzo[d]imidazol-1-yl)piperidin-1-yl)pyrrolidine-1-carboxylate] are 13.1 nM and 997 nM.
Take `CC#CCOC(=O)N1CCC(C)(N2CCC(n3c(=O)[nH]c4ccc(C)cc43)CC2)C1` (single isomer, unassigned) [Example 20, but-2-ynyl 3-methyl-3-(4-(6-methyl-2-oxo-2,3-dihydro-1H-benzo[d]imidazol-1-yl)piperidin-1-yl)pyrrolidine-1-carboxylate]: the EC50 amounted to 14.2 nM in test [1] (read-out: hM1 EC50) and 61 nM in test [2] (read-out: hM2 EC50).
As to `CCOC(=O)N1CCC(C)(N2CCC(N3C(=O)Cc4ccccc43)CC2)C1` (single isomer, unassigned) [Example 72, ethyl 3-methyl-3-(4-(2-oxoindolin-1-yl)piperidin-1-yl)pyrrolidine-1-carboxylate], the figures for the EC50 in test [1] (read-out: hM1 EC50) and in test [2] (read-out: hM2 EC50) were 9.5 nM and 950 nM, respectively.
As to `CCOC(=O)N1CCC(C)(N2CCC(N3C(=O)Cc4ccc(C)cc43)CC2)C1` (single isomer, unassigned) [Example 70, ethyl 3-methyl-3-(4-(6-methyl-2-oxoindolin-1-yl)piperidin-1-yl)pyrrolidine-1-carboxylate], the EC50 in test [1] (read-out: hM1 EC50) was determined as 9.8 nM; in test [2] (read-out: hM2 EC50), 448 nM.
Turning to `CCOC(=O)N1CCC(C)(N2CCC(N3C(=O)Cc4ccccc43)CC2)C1` (single isomer, unassigned) [Example 73, ethyl 3-methyl-3-(4-(2-oxoindolin-1-yl)piperidin-1-yl)pyrrolidine-1-carboxylate], the concentration giving a half-maximal response (EC50) came out at 31 nM in test [1] (read-out: hM1 EC50) and 6160 nM in test [2] (read-out: hM2 EC50).
As to `COC(=O)N1CCC(C)(N2CCC(N3C(=O)Cc4cc(F)c(C)cc43)CC2)C1` (single isomer, unassigned) [Example 83, methyl 3-(4-(5-fluoro-6-methyl-2-oxoindolin-1-yl)piperidin-1-yl)-3-methylpyrrolidine-1-carboxylate], the EC50 in test [1] (hM1 EC50 (nM)) is 26.1 nM; in test [2] (hM2 EC50 (nM)), 2840 nM.
Consider `CCOC(=O)N1CCC(C)(N2CCC(n3c(=O)[nH]c4ccc(F)cc43)CC2)C1` (single isomer, unassigned) [Example 49, ethyl 3-(4-(6-fluoro-2-oxo-2,3-dihydro-1H-benzo[d]imidazol-1-yl)piperidin-1-yl)-3-methylpyrrolidine-1-carboxylate], for which the results for the EC50 in test [1] (read-out: hM1 EC50) and in test [2] (read-out: hM2 EC50) were 15.1 nM and 4550 nM, respectively.
The corresponding values for `CC1(N2CCC(n3c(=O)[nH]c4ccccc43)CC2)CCN(C(=O)OCCF)C1` (racemic) [Example 4, 2-fluoroethyl 3-methyl-3-(4-(2-oxo-2,3-dihydro-1H-benzo[d]imidazol-1-yl)piperidin-1-yl)pyrrolidine-1-carboxylate] are 13.5 nM and 1860 nM.
Take `CC#CCOC(=O)N1CCC(C)(N2CCC(n3c(=O)[nH]c4ccccc43)CC2)C1` (single isomer, unassigned) [Example 33, but-2-ynyl 3-methyl-3-(4-(2-oxo-2,3-dihydro-1H-benzo[d]imidazol-1-yl)piperidin-1-yl)pyrrolidine-1-carboxylate]: the 50% effective concentration (EC50) stood at 1.7 nM in test [1] (read-out: hM1 EC50) and 104 nM in test [2] (read-out: hM2 EC50).
`Cc1ccc2c(c1)[nH]c(=O)n2C1CCN(C2(C)CCN(C(=O)OC(C)C)C2)CC1` (single isomer, unassigned) [Example 15, isopropyl 3-methyl-3-(4-(5-methyl-2-oxo-2,3-dihydro-1H-benzo[d]imidazol-1-yl)piperidin-1-yl)pyrrolidine-1-carboxylate]: the EC50 in test [1] (read-out: hM1 EC50) came to 94.9 nM; in test [2] (read-out: hM2 EC50), 2850 nM.
